According to ChEMBL document CHEMBL1131022, “Synthesis and biological activity of a novel methylamine-bridged enkephalin analogue (MABE): a new route to cyclic peptides and peptidomimetics” (J Med Chem, 1998):

Columns and labels:
Rattus norvegicus = test: In vivo efficacy was measured using thermal escape assay; format: functional
[1] = target: Delta-type opioid receptor (Homo sapiens, UniProt P41143); test: In vitro potency was measured against human Opioid receptor delta 1
Mu-type opioid receptor = Mu-type opioid receptor (Homo sapiens, UniProt P35372); test: In vitro potency was measured against human Opioid receptor mu 1
Chain of Mu-type opioid receptor (P35372 whole entry): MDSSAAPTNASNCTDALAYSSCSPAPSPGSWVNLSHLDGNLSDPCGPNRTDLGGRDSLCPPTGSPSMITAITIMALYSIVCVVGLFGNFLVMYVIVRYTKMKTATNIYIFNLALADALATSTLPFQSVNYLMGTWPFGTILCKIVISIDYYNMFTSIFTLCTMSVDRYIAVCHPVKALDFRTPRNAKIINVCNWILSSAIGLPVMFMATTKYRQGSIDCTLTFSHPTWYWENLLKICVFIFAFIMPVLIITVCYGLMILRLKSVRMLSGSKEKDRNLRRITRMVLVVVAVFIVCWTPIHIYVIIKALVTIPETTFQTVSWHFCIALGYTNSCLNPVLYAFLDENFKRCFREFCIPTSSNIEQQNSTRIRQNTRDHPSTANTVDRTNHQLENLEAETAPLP

[2] = target: Kappa-type opioid receptor (Homo sapiens, UniProt P41145); test: In vitro potency was measured against human Opioid receptor kappa 1
Chain of Kappa-type opioid receptor (P41145 whole entry): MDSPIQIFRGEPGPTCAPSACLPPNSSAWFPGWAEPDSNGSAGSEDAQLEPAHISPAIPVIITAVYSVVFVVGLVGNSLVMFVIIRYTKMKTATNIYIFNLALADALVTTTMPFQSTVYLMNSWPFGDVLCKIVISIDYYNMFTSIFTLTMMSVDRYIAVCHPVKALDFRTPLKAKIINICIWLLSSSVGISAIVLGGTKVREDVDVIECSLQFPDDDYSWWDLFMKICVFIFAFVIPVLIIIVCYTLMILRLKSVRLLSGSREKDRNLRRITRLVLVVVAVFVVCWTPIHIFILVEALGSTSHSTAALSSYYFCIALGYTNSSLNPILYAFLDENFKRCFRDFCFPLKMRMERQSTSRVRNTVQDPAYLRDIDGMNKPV

Chain of Delta-type opioid receptor (P41143 whole entry): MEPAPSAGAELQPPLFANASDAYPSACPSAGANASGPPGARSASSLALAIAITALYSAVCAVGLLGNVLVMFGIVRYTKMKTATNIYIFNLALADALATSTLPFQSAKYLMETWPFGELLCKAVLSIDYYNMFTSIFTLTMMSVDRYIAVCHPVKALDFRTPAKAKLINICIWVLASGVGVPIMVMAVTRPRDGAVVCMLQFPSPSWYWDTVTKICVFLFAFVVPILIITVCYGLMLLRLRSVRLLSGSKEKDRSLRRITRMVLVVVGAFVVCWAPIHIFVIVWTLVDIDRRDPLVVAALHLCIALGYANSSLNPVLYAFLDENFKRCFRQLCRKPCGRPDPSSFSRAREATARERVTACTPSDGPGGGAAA

| Compound | ED50 (Rattus norvegicus) | Ki [1] | Ki (Mu-type opioid receptor) | Ki [2] |
| --- | --- | --- | --- | --- |
| C[C@@H](NC(=O)[C@@H](N)Cc1ccc(O)cc1)C(=O)NCC(=O)N(C)[C@@H](Cc1ccccc1)C(=O)NCCO [DAMGO] | 0.14 µg | – | – | – |
| CC1(C)SSC(C)(C)C(NC(=O)[C@@H](N)Cc2ccc(O)cc2)C(=O)NCC(=O)N[C@@H](Cc2ccccc2)C(=O)NC1C(=O)O (single isomer, unassigned) | 54 µg | – | – | – |
| CN1CCNC(=O)[C@H](Cc2ccccc2)NC(=O)CNC(=O)[C@H](NC(=O)[C@@H](N)Cc2ccc(O)cc2)C1 | 0.027 µg | 2.1 nM | 1.6 nM | 340 nM |
| CN1CC[C@]23c4c5ccc(O)c4O[C@H]2[C@@H](O)C=C[C@H]3[C@H]1C5 [MORPHINE] | 2.4 µg | – | – | – |
